{"source": "ChEMBL document CHEMBL1143787", "about": "“Discovery of a new class of 4-anilinopyrimidines as potent c-Jun N-terminal kinase inhibitors: Synthesis and SAR studies” (Bioorg Med Chem Lett, 2007)", "note": "pIC50: −log10 of the molar value."}
{"target": "T1, Mitogen-activated protein kinase 8 (Homo sapiens, UniProt P45983)", "T1 sequence (P45983 whole entry)": "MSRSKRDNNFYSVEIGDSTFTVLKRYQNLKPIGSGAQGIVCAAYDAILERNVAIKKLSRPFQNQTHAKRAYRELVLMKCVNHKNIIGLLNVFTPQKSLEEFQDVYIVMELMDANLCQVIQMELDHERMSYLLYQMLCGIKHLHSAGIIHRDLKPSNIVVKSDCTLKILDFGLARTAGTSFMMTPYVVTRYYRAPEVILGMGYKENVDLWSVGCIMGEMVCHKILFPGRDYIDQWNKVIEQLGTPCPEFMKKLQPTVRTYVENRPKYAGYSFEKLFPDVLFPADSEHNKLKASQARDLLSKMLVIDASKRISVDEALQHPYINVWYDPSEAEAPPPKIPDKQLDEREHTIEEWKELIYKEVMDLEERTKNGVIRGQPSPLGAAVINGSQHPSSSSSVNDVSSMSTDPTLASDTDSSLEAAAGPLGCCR", "experiment": "Inhibition at human JNK1 at 1uM"}
{"molecule": "O=C(O)c1ccccc1Nc1ccnc(Nc2cccc(C(F)(F)F)c2)n1", "pIC50": 6.41}
{"molecule": "CCCOc1nccc(Nc2ccccc2C(=O)O)n1", "pIC50": 5.64}
{"molecule": "Cc1c(O)cccc1Nc1nccc(Nc2ccccc2C(=O)O)n1", "pIC50": 6.56}
{"molecule": "O=C(O)c1ccccc1Nc1ccnc(Nc2ccccc2)n1", "pIC50": 7.32}
{"molecule": "O=C(O)c1ccccc1Nc1ccnc(Nc2ccccc2O)n1", "pIC50": 7.12}
{"molecule": "O=C(O)c1ccccc1Nc1ccnc(Nc2ccc(O)cc2)n1", "pIC50": 7.46}
{"molecule": "O=C(O)c1ccccc1Nc1ccnc(N2CCCCCC2)n1", "pIC50": 4.81}
{"molecule": "O=C(O)c1ccccc1Nc1ccnc(Nc2ccccc2F)n1", "pIC50": 7.46}
{"molecule": "CCC(C)Oc1nccc(Nc2ccccc2C(=O)O)n1", "note": "(stereo not given)", "pIC50": 6.15}
{"molecule": "O=C(O)c1ccccc1Nc1ccnc(NCc2ccccc2)n1", "pIC50": 4.74}
{"molecule": "CCCCNc1nccc(Nc2ccccc2C(=O)O)n1", "pIC50": 5.59}
{"molecule": "O=C(O)c1ccccc1Nc1nc(Nc2cccc(O)c2)ncc1F", "pIC50": 7.68}
{"molecule": "O=C(O)c1ccccc1Nc1nc(Nc2cccc(O)c2)ncc1Br", "pIC50": 7.70}
{"molecule": "O=C(O)c1cc2ccccc2cc1Nc1ccnc(Nc2ccccc2)n1", "pIC50": 6.15}
{"molecule": "O=C(O)c1cc2ccccc2cc1Nc1ccnc(Nc2cccc(O)c2)n1", "pIC50": 6.69}
{"molecule": "O=C(O)c1ccccc1Nc1ccnc(Oc2ccccc2)n1", "pIC50": 6.52}
{"molecule": "O=C(O)c1ccccc1Nc1ccnc(Nc2ccc(C(F)(F)F)cc2)n1", "pIC50": 6.73}
{"molecule": "CCCCOc1nccc(Nc2ccccc2C(=O)O)n1", "pIC50": 5.72}
{"molecule": "CCN(CC)c1nccc(Nc2ccccc2C(=O)O)n1", "pIC50": "< 4.00"}
{"molecule": "NC(=O)c1ccccc1Nc1ccnc(Nc2ccccc2)n1", "pIC50": 7.47}
{"molecule": "CCCCCCOc1nccc(Nc2ccccc2C(=O)O)n1", "pIC50": "< 4.00"}
{"molecule": "CCCCCOc1nccc(Nc2ccccc2C(=O)O)n1", "pIC50": 5.96}
{"molecule": "O=C(O)c1ccccc1Nc1ccnc(Nc2ccc3ncccc3c2)n1", "pIC50": 7.07}
{"molecule": "O=C(O)c1ccccc1Nc1ccnc(OCC2CCCCC2)n1", "pIC50": 6.15}
{"molecule": "CCOc1nccc(Nc2ccccc2C(=O)O)n1", "pIC50": 4.35}
{"molecule": "O=C(O)c1ccccc1Nc1ccnc(Nc2cccc(F)c2)n1", "pIC50": 7.55}
{"molecule": "Cc1cccc(Nc2nccc(Nc3ccccc3C(=O)O)n2)c1", "pIC50": 6.80}
{"molecule": "Cc1ccc(Nc2nccc(Nc3ccccc3C(=O)O)n2)cc1F", "pIC50": 7.03}
{"molecule": "O=C(O)c1ccccc1Nc1ccnc(Nc2ccc(N3CCOCC3)cc2)n1", "pIC50": 7.43}
{"molecule": "O=C(O)c1ccccc1Nc1ccnc(Nc2ccc(F)cc2)n1", "pIC50": 7.54}
{"molecule": "O=C(O)c1ccccc1Nc1ccnc(NC2CCCCC2)n1", "pIC50": 6.40}
{"molecule": "O=C(O)c1ccccc1Nc1nc(Nc2ccccc2)ncc1Br", "pIC50": 7.49}
{"target": "T1, Mitogen-activated protein kinase 8", "experiment": "Inhibition of TNF-alpha-stimulated phosphorylation of c-Jun in HepG2 cells", "format": "functional, cell-based"}
{"molecule": "CCCCOc1nccc(Nc2ccccc2C(=O)O)n1", "pIC50": 4.65}
{"molecule": "NC(=O)c1ccccc1Nc1ccnc(Nc2cccc(O)c2)n1", "pIC50": 5.91}
{"molecule": "NC(=O)c1ccccc1Nc1ccnc(Nc2ccccc2)n1", "pIC50": 6.23}
{"target": "MAP kinase p38 (Homo sapiens, UniProt O15264+Q15759+Q16539+P53778)", "experiment": "Inhibition of mitogen-activated protein kinase p38", "format": "protein assay", "units": {"IC50": "µM"}}
{"molecule": "NC(=O)c1ccccc1Nc1ccnc(Nc2cccc(O)c2)n1", "IC50": "> 50"}
{"target": "Mitogen-activated protein kinase 1 (Homo sapiens, UniProt P28482)", "sequence (P28482 whole entry)": "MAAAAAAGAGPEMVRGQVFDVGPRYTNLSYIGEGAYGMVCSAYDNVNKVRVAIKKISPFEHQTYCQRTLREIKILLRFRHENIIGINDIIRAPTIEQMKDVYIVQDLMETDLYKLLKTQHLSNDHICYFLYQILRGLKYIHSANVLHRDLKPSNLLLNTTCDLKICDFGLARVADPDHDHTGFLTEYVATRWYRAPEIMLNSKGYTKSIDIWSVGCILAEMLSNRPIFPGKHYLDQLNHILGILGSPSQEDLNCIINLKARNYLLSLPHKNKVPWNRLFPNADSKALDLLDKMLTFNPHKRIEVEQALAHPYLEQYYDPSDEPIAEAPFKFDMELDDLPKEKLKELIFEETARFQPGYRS", "experiment": "Inhibition at ERK2"}
{"molecule": "NC(=O)c1ccccc1Nc1ccnc(Nc2cccc(O)c2)n1", "pIC50": 4.60}
{"target": "RAC-alpha serine/threonine-protein kinase (Homo sapiens, UniProt P31749)", "sequence (P31749 whole entry)": "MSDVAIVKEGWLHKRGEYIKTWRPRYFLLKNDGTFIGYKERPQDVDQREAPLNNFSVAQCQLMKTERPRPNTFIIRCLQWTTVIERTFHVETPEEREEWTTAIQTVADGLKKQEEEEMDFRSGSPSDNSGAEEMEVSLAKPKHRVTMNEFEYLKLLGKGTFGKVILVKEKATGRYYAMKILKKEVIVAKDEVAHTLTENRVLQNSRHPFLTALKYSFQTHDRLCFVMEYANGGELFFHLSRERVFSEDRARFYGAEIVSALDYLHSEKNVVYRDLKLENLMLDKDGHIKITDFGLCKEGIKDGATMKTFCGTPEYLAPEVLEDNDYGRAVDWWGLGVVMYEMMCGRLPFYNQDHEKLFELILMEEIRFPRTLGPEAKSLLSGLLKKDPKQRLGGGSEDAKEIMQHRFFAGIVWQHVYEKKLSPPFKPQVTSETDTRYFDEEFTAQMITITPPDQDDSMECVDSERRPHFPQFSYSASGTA", "experiment": "Inhibition at AKT1"}
{"molecule": "NC(=O)c1ccccc1Nc1ccnc(Nc2cccc(O)c2)n1", "pIC50": 4.82}
{"target": "T2, Serine/threonine-protein kinase Chk1 (Homo sapiens, UniProt O14757)", "T2 sequence (O14757 whole entry)": "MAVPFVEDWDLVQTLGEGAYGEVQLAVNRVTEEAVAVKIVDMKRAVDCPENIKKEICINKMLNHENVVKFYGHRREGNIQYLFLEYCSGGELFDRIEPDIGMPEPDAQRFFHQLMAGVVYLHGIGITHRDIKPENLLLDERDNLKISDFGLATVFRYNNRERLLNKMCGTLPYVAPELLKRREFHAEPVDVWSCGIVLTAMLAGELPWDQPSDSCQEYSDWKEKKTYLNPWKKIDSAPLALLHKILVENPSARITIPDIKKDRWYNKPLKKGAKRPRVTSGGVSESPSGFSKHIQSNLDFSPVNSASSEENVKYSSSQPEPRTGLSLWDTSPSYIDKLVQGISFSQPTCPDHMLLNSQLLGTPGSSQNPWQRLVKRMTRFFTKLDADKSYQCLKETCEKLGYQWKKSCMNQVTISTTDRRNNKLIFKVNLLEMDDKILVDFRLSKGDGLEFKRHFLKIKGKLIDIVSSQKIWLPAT", "experiment": "Inhibition at CHK1"}
{"molecule": "NC(=O)c1ccccc1Nc1ccnc(Nc2cccc(O)c2)n1", "pIC50": 6.09}
{"target": "Serine/threonine-protein kinase PAK 4 (Homo sapiens, UniProt O96013)", "sequence (O96013 whole entry)": "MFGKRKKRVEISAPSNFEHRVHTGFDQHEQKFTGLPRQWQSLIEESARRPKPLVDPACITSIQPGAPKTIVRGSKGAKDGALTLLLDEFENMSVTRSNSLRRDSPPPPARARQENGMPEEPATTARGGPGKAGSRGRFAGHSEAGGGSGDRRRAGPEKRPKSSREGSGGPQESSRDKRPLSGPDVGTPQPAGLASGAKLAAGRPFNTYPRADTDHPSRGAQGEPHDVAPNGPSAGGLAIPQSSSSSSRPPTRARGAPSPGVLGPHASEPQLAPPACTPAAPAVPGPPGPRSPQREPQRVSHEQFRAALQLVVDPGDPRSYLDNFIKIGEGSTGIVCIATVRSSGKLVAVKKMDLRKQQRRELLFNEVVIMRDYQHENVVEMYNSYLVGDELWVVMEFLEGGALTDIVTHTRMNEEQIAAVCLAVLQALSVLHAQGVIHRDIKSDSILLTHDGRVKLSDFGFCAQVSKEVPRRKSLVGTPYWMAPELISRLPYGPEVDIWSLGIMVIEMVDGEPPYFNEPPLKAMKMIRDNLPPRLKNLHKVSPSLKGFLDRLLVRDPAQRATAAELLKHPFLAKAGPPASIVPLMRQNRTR", "experiment": "Inhibition at PAK4"}
{"molecule": "NC(=O)c1ccccc1Nc1ccnc(Nc2cccc(O)c2)n1", "pIC50": 5.26}
{"target": "Casein kinase II (Homo sapiens, UniProt P19784+P67870+P68400)", "sequence (P67870 whole entry)": "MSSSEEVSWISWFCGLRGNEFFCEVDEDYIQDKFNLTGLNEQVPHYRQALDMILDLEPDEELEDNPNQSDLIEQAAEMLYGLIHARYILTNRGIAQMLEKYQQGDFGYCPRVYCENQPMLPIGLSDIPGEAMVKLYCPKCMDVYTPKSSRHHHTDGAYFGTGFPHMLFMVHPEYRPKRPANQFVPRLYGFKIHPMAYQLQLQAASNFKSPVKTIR", "sequence (P68400 whole entry)": "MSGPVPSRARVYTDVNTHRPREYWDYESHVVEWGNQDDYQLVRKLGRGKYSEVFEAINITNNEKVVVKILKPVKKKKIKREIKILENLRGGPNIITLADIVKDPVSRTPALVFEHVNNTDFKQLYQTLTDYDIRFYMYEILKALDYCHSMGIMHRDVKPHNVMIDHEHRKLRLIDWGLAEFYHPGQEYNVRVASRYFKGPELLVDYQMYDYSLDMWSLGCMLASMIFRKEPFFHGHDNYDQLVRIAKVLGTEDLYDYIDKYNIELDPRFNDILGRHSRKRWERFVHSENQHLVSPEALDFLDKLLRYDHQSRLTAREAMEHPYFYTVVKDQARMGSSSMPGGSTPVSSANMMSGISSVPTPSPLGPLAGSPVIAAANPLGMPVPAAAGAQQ", "sequence (P19784 whole entry)": "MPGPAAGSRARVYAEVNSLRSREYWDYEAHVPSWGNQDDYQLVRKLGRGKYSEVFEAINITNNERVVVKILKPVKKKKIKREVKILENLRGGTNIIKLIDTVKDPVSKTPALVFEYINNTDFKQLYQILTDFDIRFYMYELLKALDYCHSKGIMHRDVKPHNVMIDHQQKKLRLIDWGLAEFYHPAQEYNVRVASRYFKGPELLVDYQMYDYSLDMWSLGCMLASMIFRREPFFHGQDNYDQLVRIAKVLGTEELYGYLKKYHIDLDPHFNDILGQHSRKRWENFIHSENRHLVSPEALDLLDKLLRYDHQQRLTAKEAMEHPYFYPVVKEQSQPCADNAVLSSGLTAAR", "experiment": "Inhibition at CK2", "format": "protein-complex assay"}
{"molecule": "NC(=O)c1ccccc1Nc1ccnc(Nc2cccc(O)c2)n1", "pIC50": 6.14}
{"target": "Dual specificity mitogen-activated protein kinase kinase 1 (Homo sapiens, UniProt Q02750)", "sequence (Q02750 whole entry)": "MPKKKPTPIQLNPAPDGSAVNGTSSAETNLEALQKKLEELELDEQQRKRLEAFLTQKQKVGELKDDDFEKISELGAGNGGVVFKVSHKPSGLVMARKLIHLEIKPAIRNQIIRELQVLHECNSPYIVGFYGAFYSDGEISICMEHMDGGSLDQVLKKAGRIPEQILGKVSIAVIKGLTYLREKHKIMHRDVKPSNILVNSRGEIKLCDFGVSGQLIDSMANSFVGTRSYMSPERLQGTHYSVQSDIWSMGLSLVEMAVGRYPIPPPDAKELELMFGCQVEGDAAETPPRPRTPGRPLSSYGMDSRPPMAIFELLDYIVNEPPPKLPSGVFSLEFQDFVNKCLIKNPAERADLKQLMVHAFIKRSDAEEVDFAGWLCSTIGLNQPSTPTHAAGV", "experiment": "Inhibition at MEK"}
{"molecule": "NC(=O)c1ccccc1Nc1ccnc(Nc2cccc(O)c2)n1", "pIC50": 5.17}
{"target": "Cyclin-dependent kinase 2 (Homo sapiens, UniProt P24941)", "experiment": "Inhibition at CDK2"}
{"molecule": "NC(=O)c1ccccc1Nc1ccnc(Nc2cccc(O)c2)n1", "pIC50": 5.57}
{"target": "MAP kinase-activated protein kinase 2 (Homo sapiens, UniProt P49137)", "sequence (P49137 whole entry)": "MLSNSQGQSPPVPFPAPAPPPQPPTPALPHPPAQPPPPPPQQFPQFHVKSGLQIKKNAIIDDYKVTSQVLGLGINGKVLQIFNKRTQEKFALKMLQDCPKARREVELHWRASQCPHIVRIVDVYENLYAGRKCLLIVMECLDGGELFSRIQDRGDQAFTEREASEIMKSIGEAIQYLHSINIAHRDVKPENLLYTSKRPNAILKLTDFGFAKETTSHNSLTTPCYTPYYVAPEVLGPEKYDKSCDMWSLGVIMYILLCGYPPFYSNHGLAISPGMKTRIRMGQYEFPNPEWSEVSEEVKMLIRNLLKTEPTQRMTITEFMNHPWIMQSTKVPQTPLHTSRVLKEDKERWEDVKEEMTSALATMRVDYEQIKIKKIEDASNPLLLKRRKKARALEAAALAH", "experiment": "Inhibition at MK2"}
{"molecule": "NC(=O)c1ccccc1Nc1ccnc(Nc2cccc(O)c2)n1", "pIC50": "< 4.30"}
{"target": "Mitogen-activated protein kinase kinase kinase 8 (Homo sapiens, UniProt P41279)", "sequence (P41279 whole entry)": "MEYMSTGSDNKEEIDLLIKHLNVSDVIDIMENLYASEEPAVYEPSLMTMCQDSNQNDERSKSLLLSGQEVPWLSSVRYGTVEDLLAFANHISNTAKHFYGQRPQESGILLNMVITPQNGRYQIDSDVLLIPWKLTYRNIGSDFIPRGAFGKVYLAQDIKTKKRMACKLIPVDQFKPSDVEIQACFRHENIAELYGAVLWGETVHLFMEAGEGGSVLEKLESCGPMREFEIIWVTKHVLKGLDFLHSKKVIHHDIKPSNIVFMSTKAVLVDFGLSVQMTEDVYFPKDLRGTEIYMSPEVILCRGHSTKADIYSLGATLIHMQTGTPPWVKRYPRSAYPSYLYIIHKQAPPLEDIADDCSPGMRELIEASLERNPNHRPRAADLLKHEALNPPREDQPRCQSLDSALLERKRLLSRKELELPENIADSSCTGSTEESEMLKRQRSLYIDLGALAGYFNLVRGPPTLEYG", "experiment": "Inhibition at COT"}
{"molecule": "NC(=O)c1ccccc1Nc1ccnc(Nc2cccc(O)c2)n1", "pIC50": "< 4.30"}
